Earlier results on 1 molecule are cited in patent US20140230258A1, “COMPACT HAND HELD DEVICE” (The Gillette Company, priority 2013, published 2014).

Each structure is given as a SMILES string.

For this data set the following is noted: organism not stated.

As for `CCCCCCCCn1sc(Cl)c(Cl)c1=O` [4,5-dichloro-2-n-octyl-4-isothiazolin-3-one], the MIC entry is listed as “about 50 ppm”.
